In patent EP1925314A1, “Pharmaceutical composition with synergistic anticonvulsant effect” (SCHWARZ PHARMA AG, priority 2006, dated 2008):
Read-outs that look alike come from different tables or passages of the source.

Columns and labels:
epileptic seizures = assay: ED50 of the individual compounds, seizure model not given (various models of the rat and the mouse); assay type: in vivo; settings: ip
Experimental: The skilled person may determine the ED50 values by methods known in the art. It is preferred that the ED50 values are determined by preclinical or/and clinical trials. Published ED50 values may also be used. […] Tables 5 and 6 disclose specific ED50 values obtained in various models of the rat and the mouse. A person skilled in the art knows that in a particular model, among different species, ED50 values show a variation by a factor of up to 5 or even larger.

6 Hz-induced seizures [1] = assay: 6 Hz seizure test in mice, with isobolographic analysis of drug combinations; settings: for anticonvulsant effects against 6 Hz seizure: i.p., mice
[2] = test system: lithium-pilocarpine-induced status epilepticus; settings: Bialer et al., 2001, 2002; cited from earlier work
[3] = test system: cobalt-homocysteine-induced status epilepticus; settings: Bialer et al., 2001, 2002; cited from earlier work
[4] = test system: pattern of neuronal activation; settings: Duncan and Kohn (2004); cited from earlier work
[5] = test system: refractory self-sustaining status epilepticus; settings: in vivo; cited from earlier work
mouse cortical neurons = mouse cortical neurons (Bialer et al., 2002); cited from earlier work
[6] = test system: 6 Hz psychomotor seizures; settings: determined in the anticonvulsant drug screening program of NINDS; cited from earlier work
[7] = test system: drug metabolizing enzymes; assay: Inhibition, induction and metabolism by drug metabolizing enzymes; settings: a large variety of enzymes
[8] = Clinical population pharmacokinetic analysis
6 Hz-induced seizures [9] = settings: literature observation (Gower et al., 1993; Klitgaard et al., 1998); cited from earlier work
[10] = approximate value, model not stated, read-out: ED50

NC(=O)N1c2ccccc2C=Cc2ccccc21 [CBZ, carbamazepine]
ED50 (epileptic seizures; [10]): ~50 mg/kg | anticonvulsant effects against 6 Hz seizure (6 Hz-induced seizures [1]; drugs administered alone): dose-dependent anticonvulsant effects

NCC1(CC(=O)O)CCCCC1 [GBP, gabapentin]
ED50 (epileptic seizures): ~220 mg/kg | anticonvulsant effects against 6 Hz seizure (6 Hz-induced seizures [1]; drugs administered alone): dose-dependent anticonvulsant effects

COC[C@@H](NC(C)=O)C(=O)NCc1ccccc1 [LCM, R-2-acetamido-N-benzyl-3-methoxypropionamide]
efficacy against lithium-pilocarpine-induced status epilepticus [2]: effective | efficacy against cobalt-homocysteine-induced status epilepticus [3]: effective | specific pattern of neuronal activation [4]: attenuated | activity against refractory self-sustaining status epilepticus [5]: active | GABA currents (mouse cortical neurons): increased | glutamate transmission (mouse cortical neurons): inhibited glutamate transmission indirectly | ED50 [6]: 9.9 mg/kg | inhibition or induction of drug metabolizing enzymes [7]: does not inhibit or induce | ED50 (epileptic seizures): ~10 mg/kg | effect of LCM on plasma levels of AEDs or vice versa [8]: no evidence for any effect | ED50 (6 Hz-induced seizures [1]; Mus musculus, ip, 0.5 h): 10.1 mg/kg | anticonvulsant effects against 6 Hz seizure (6 Hz-induced seizures [1]; drugs administered alone): dose-dependent anticonvulsant effects | potency compared to the other tested AEDs (6 Hz-induced seizures [1]; drugs administered alone, lowest ED50): highest potency

CC[C@@H](C(N)=O)N1CCCC1=O [LEV, levetiracetam]
ED50 (epileptic seizures): ~20 mg/kg | anticonvulsant effects against 6 Hz seizure (6 Hz-induced seizures [1]; drugs administered alone): dose-dependent anticonvulsant effects | protection in the 6Hz test (6 Hz-induced seizures [9]): complete protection

Nc1nnc(-c2cccc(Cl)c2Cl)c(N)n1 [LTG, lamotrigine]
ED50 (epileptic seizures): ~85 mg/kg | anticonvulsant effects against 6 Hz seizure (6 Hz-induced seizures [1]; drugs administered alone): dose-dependent anticonvulsant effects

O=C1NC(=O)C(c2ccccc2)(c2ccccc2)N1 [PHT, phenytoin]
anticonvulsant effects against 6 Hz seizure (6 Hz-induced seizures [1]; drugs administered alone): dose-dependent anticonvulsant effects

CC1(C)O[C@@H]2[C@@H](CO[C@@]3(COS(N)(=O)=O)OC(C)(C)O[C@@H]23)O1 [TPM, topiramate]
ED50 (epileptic seizures; [10]): ~300 mg/kg | anticonvulsant effects against 6 Hz seizure (6 Hz-induced seizures [1]; drugs administered alone): dose-dependent anticonvulsant effects
